# According to ChEMBL document CHEMBL5154881, “Discovery of First-in-Class TAK1-MKK3 Protein-Protein Interaction (PPI) Inhibitor (R)-STU104 for the Treatment of Ulcerative Colitis through Modulating TNF-α Production” (J Med Chem, 2022):
# Key:
# Mus musculus [1] = experiment: Antiinflammatory activity against IL-10-/- C57BL/6 mouse model of ulcerative colitis assessed as inhibition ratio of IL-23 protein expression at 1 mg/kg, IG via gavage and measured after 8 weeks by ELISA relative to control; type: functional; set-up: scale not given: the % may be the effect or the level left
# Mus musculus [2] = experiment: Antiinflammatory activity against DSS-induced C57BL/6 mouse model of acute ulcerative colitis assessed as inhibition ratio of TNF-alpha mRNA expression in colon tissue at 3 mg/kg, IG via gavage measured after 7 days by RT-qPCR analysis relative to control; type: functional; set-up: scale not given: the % may be the effect or the level left; conditions: time 7 day
# Mus musculus [3] = experiment: Anti-ulcerative colitis activity against DSS-induced ulcerative colitis C57BL/6 mouse model assessed as reduction in DAI score at 10 mg/kg, IG via gavage administered for 7 days and measured everyday (reference value: 4.0); type: functional; conditions: time 7 day
# Mus musculus [4] = experiment: Antiinflammatory activity against IL-10-/- C57BL/6 mouse model of ulcerative colitis assessed as inhibition ratio of IL-1beta mRNA expression in colon tissue at 3 mg/kg, IG via gavage and measured after 8 weeks by RT-qPCR analysis relative to control; type: functional; set-up: scale not given: the % may be the effect or the level left
# [5] = Bioavailability in 12 hr starved C57 mouse […] measured for 0.083 to 24 hrs post-dose by LC-MS-MS analysis; type: ADME, organism-based; conditions: in vivo, time 0.083-24 hrs
# Mus musculus [6] = experiment: Antiinflammatory activity against IL-10-/- C57BL/6 mouse model of ulcerative colitis assessed as inhibition ratio of TNF-alpha protein expression at 10 mg/kg, IG via gavage and measured after 8 weeks by ELISA relative to control; type: functional; set-up: scale not given: the % may be the effect or the level left
# Mus musculus [7] = experiment: Antiinflammatory activity against IL-10-/- C57BL/6 mouse model of ulcerative colitis assessed as inhibition ratio of IL-6 mRNA expression in colon tissue at 3 mg/kg, IG via gavage and measured after 8 weeks by RT-qPCR analysis relative to control; type: functional; set-up: scale not given: the % may be the effect or the level left
# Mus musculus [8] = experiment: Inhibition of MKK3-p38 MAPK-elF4E signaling pathway in C57BL/6 mouse model of acute ulcerative colitis assessed as decrease in DSS-induced p38 MAPK phosphorylation in colon tissue administered intragastrically via gavage measured after 7 days by Western blot analysis; conditions: dose 1-50 mg/kg, time 7.0 day, DDE = dose-dependent effect
# [9] = target: Voltage-gated inwardly rectifying potassium channel KCNH2 (Homo sapiens, UniProt Q12809); experiment: Inhibition of hERG; type: toxicity
# Voltage-gated inwardly rectifying potassium channel KCNH2, sequence (Q12809 whole entry): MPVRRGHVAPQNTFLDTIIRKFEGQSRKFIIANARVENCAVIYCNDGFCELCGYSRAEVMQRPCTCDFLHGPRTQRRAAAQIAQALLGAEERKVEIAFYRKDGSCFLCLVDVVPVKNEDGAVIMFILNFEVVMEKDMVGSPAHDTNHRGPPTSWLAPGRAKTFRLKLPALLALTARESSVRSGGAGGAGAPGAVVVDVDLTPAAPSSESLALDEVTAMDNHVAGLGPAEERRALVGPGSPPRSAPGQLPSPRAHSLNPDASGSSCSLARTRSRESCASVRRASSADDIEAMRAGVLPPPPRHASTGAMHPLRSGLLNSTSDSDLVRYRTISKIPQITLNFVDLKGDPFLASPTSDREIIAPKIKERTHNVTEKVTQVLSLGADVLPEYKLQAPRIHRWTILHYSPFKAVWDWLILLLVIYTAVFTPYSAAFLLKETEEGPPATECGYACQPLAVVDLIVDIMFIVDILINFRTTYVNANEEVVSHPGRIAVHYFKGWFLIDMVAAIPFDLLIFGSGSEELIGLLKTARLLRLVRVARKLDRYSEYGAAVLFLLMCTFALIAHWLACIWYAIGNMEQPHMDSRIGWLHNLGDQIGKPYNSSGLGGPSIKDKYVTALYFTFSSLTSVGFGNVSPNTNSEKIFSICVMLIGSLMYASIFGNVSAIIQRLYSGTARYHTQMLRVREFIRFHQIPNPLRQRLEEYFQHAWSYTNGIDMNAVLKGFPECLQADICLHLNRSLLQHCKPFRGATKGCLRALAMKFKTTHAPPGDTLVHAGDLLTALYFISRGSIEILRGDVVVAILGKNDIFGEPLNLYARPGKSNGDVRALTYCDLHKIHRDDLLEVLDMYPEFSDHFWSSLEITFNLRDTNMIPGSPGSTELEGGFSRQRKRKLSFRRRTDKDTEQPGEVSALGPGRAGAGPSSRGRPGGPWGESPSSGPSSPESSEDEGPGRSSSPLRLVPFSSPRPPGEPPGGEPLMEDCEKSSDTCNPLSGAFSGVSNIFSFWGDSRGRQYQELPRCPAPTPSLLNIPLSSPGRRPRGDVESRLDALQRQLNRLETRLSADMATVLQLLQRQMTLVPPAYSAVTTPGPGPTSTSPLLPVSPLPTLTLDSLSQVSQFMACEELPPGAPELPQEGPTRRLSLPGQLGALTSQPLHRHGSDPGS
# [10] = Apparent clearance during terminal phase in 12 hr starved C57 mouse at 5 mg/kg, iv measured for 0.083 to 24 hrs post-dose by LC-MS-MS analysis; type: ADME, organism-based; conditions: in vivo, time 0.083-24 hrs
# Mus musculus [11] = experiment: Anti-ulcerative colitis activity against DSS-induced ulcerative colitis C57BL/6 mouse model assessed as reduction in DAI recovery score ratio at 10 mg/kg, IG via gavage administered for 7 days and measured everyday relative to control; type: functional; set-up: scale not given: the % may be the effect or the level left; conditions: time 7 day
# Mus musculus [12] = experiment: Antiinflammatory activity against IL-10-/- C57BL/6 mouse model of ulcerative colitis assessed as inhibition ratio of IL-23 protein expression at 3 mg/kg, IG via gavage and measured after 8 weeks by ELISA relative to control; type: functional; set-up: scale not given: the % may be the effect or the level left
compound,measurement,setting,value
COc1ccc([C@H]2CC(=O)c3cc(OC)cc(OC)c32)cc1,Activity,Mus musculus [1],39.6%
same,Activity,Mus musculus [2],73.2%
same,Activity,Mus musculus [3],2.2
same,Activity,Mus musculus [4],36.1%
same,bioavailability,[5],33%
same,Activity,Mus musculus [6],61.9%
same,Activity,Mus musculus [7],37.1%
same,inhibition,Mus musculus [8],Dde
same,IC50,[9],> 30 µM
same,CLz/F,[10],9.67 mL/min/kg
same,Activity,Mus musculus [11],45%
same,Activity,Mus musculus [12],58.2%
